Structure (SMILES)	melting point
CCCCc1nc2c(N)nc3ccc(OCCC4CCN(C(=O)OC(C)(C)C)CC4)cc3c2n1C [Example 37, tert-Butyl 4-[2-(4-amino-2-butyl-1-methyl-1H-imidazo[4,5-c]quinolin-8-yloxy)ethyl]piperidine-1-carboxylate]	171.1 to 173.2 °C
CCCCc1nc2c(N)nc3ccc(OCCC4CCNCC4)cc3c2n1C [Example 38, 2-Butyl-1-methyl-8-(2-piperidin-4-ylethoxy)-1H-imidazo[4,5-c]quinolin-4-amine]	210 to 212 °C
CCCCc1nc2c(N)nc3ccc(OCCC4CCN(C(=O)C(C)C)CC4)cc3c2n1C [Example 39, 1-{4-[2-(4-Amino-2-butyl-1-methyl-1H-imidazo[4,5-c]quinolin-8-yloxy)ethyl]piperidin-1-yl}-2-methylpropan-1-one]	189.4 to 192.6 °C
CCCCc1nc2c(N)nc3ccc(OCCC4CCN(C(=O)C5CCCC5)CC4)cc3c2n1C [Example 40, 2-Butyl-8-{2-[1-(cyclopentylcarbonyl)piperidin-4-yl]ethoxy}-1-methyl-1H-imidazo[4,5-c]quinolin-4-amine]	147.2 to 150.1 °C
CCCCc1nc2c(N)nc3ccc(OCCC4CCN(S(C)(=O)=O)CC4)cc3c2n1C [Example 41, 2-Butyl-8-{2-[1-(methanesulfonyl)piperidin-4-yl]ethoxy}-1-methyl-1H-imidazo[4,5-c]quinolin-4-amine]	198 to 199.5 °C
CCCCc1nc2c(N)nc3ccc(OCCC4CCN(C(=O)N5CCOCC5)CC4)cc3c2n1C [Example 42, 2-Butyl-1-methyl-8-{2-[1-(morpholin-4-ylcarbonyl)piperidin-4-yl]ethoxy}-1H-imidazo[4,5-c]quinolin-4-amine]	152.8 °C (dec.)
CCCCc1nc2c(N)nc3ccc(OCCNC(=O)CC)cc3c2n1C [Example 43, N-[2-(4-Amino-2-butyl-1-methyl-1H-imidazo[4,5-c]quinolin-8-yloxy)ethyl]propanamide]	250 to 255 °C (dec.)
Cc1nc2c(N)nc3ccc(OCC(=O)O)cc3c2n1C [Example 44, 2-[(4-Amino-1,2-dimethyl-1H-imidazo[4,5-c]quinolin-8-yl)oxy]acetic acid]	298 °C (dec.)
CCOCc1nc2c(N)nc3cc(OCCCCCCNS(C)(=O)=O)ccc3c2n1CC(C)(C)NS(C)(=O)=O [Example 45, N-(2-{4-Amino-2-ethoxymethyl-7-[6-(methanesulfonylamino)hexyloxy]-1H-imidazo[4,5-c]quinolin-1-yl}-1,1-dimethylethyl)methanesulfonamide]	176 to 180 °C
CCOCc1nc2c(N)nc3cc(OCCCCCCNC(C)=O)ccc3c2n1CC(C)(C)NS(C)(=O)=O [Example 46, N-(6-{[4-Amino-2-ethoxymethyl-1-(2-methanesulfonylamino-2-methylpropyl)-1H-imidazo[4,5-c]quinolin-7-yl]oxy}hexyl)acetamide]	169 to 171 °C
CCCc1nc2c(N)nc3cc(OCCCCCCNS(C)(=O)=O)ccc3c2n1CCCCNS(C)(=O)=O [Example 47, N-(4-{4-Amino-7-[6-(methanesulfonylamino)hexyloxy]-2-propyl-1H-imidazo[4,5-c]quinolin-1-yl}butyl)methanesulfonamide]	138 to 140 °C
CCCc1nc2c(N)nc3cc(OCCCCCCNC(C)=O)ccc3c2n1CCCCNS(C)(=O)=O [Example 48, N-(6-{4-Amino-1-[4-(methanesulfonylamino)butyl]-2-propyl-1H-imidazo[4,5-c]quinolin-7-yloxy}hexyl)acetamide]	168 to 172 °C
CCOCc1nc2c(N)nc3cc(OCCCCCCNC(C)=O)ccc3c2n1CC(C)(C)NC(C)=O [Example 50, N-(2-{7-[6-(Acetylamino)hexyloxy]-4-amino-2-ethoxymethyl-1H-imidazo[4,5-c]quinolin-1-yl}-1,1-dimethylethyl)acetamide]	190 to 192 °C
CCc1nc2c(N)nc3cc(OCC(=O)C(C)(C)C)ccc3c2n1CCOc1ccccc1 [Example 52, 1-[4-Amino-2-ethyl-1-(2-phenoxyethyl)-1H-imidazo[4,5-c]quinolin-7-yloxy]-3,3-dimethylbutan-2-one]	238 to 239 °C (dec.)
CCc1nc2c(N)nc3cc(OCC(=O)N4CCOCC4)ccc3c2n1CCOc1ccccc1 [Example 53, 2-Ethyl-7-(2-morpholin-4-yl-2-oxoethoxy)-1-(2-phenoxyethyl)-1H-imidazo[4,5-c]quinolin-4-amine]	208 to 209 °C
CCCc1nc2c(N)nc3cc(OCC4CCCCO4)ccc3c2n1CC(C)C (stereo not shown) [Example 54, 1-(2-Methylpropyl)-2-propyl-7-(tetrahydropyran-2-ylmethoxy)-1H-imidazo[4,5-c]quinolin-4-amine]	126 °C (dec.)
CCCc1nc2c(N)nc3cc(OC4CCOC4)ccc3c2n1CC(C)C (stereo not shown) [Example 55, 1-(2-Methylpropyl)-2-propyl-7-(tetrahydrofuran-3-yloxy)-1H-imidazo[4,5-c]quinolin-4-amine]	178 to 182 °C

Structure (SMILES)	melting point
CCCn1c(CCOC)nc2c(N)nc3cc(OC4CCOC4)ccc3c21 (stereo not shown) [Example 56, 2-(2-Methoxyethyl)-1-propyl-7-(tetrahydrofuran-3-yloxy)-1H-imidazo[4,5-c]quinolin-4-amine]	192 to 194 °C
CCCn1c(CCOC)nc2c(N)nc3cc(OC(=O)NC(C)C)ccc3c21 [Example 366, 4-Amino-2-(2-methoxyethyl)-1-propyl-1H-imidazo[4,5-c]quinolin-7-yl isopropylcarbamate]	144 to 146 °C
CCOCc1nc2c(N)nc3cc(OCCCCCCNC(=S)NC(C)C)ccc3c2n1CC(C)(C)NC(C)=O [Example 368, N-(2-{4-Amino-2-(ethoxymethyl)-7-[(6-{[(isopropylamino)carbonothioyl]amino}hexyl)oxy]-1H-imidazo[4,5-c]quinolin-1-yl}-1,1-dimethylethyl)acetamide]	110 to 120 °C
CCOCc1nc2c(N)nc3cc(OCCCCCCNC(=O)NC(C)C)ccc3c2n1CC(C)(C)NC(=O)NC(C)C [Example 369, N-(2-{4-Amino-2-(ethoxymethyl)-7-[(6-{[(isopropylamino)carbonyl]amino}hexyl)oxy]-1H-imidazo[4,5-c]quinolin-1-yl}-1,1-dimethylethyl)-N′-isopropylurea]	205 to 209 °C
CCOCc1nc2c(N)nc3cc(OCCCCCCNC(C)=O)ccc3c2n1CC(C)(C)NC(=O)NC(C)C [Example 370, N-(6-{[4-Amino-2-(ethoxymethyl)-1-(2-{[(isopropylamino)carbonyl]amino}-2-methylpropyl)-1H-imidazo[4,5-c]quinolin-7-yl]oxy}hexyl)acetamide]	90 to 110 °C
CCOCc1nc2c(N)nc3cc(OCCCCCCNS(C)(=O)=O)ccc3c2n1CC(C)(C)NC(=O)NC(C)C [Example 371, N-(6-{[4-Amino-2-(ethoxymethyl)-1-(2-{[(isopropylamino)carbonyl]amino}-2-methylpropyl)-1H-imidazo[4,5-c]quinolin-7-yl]oxy}hexyl)methanesulfonamide]	190 to 194 °C
CCOCc1nc2c(N)nc3cc(OCCNC(=O)OC(C)(C)C)ccc3c2n1CC1COC(C)(C)O1 (stereo not shown) [Example 372, tert-Butyl 2-{[4-amino-1-[(2,2-dimethyl-1,3-dioxolan-4-yl)methyl]-2-(ethoxymethyl)-1H-imidazo[4,5-c]quinolin-7-yl]oxy}ethylcarbamate]	82 to 84 °C
CCOCc1nc2c(N)nc3cc(OC4CCN(C(=O)OC(C)(C)C)CC4)ccc3c2n1CC1COC(C)(C)O1 (stereo not shown) [Example 374, tert-Butyl 4-{[4-amino-1-[(2,2-dimethyl-1,3-dioxolan-4-yl)methyl]-2-(ethoxymethyl)-1H-imidazo[4,5-c]quinolin-7-yl]oxy}piperidine-1-carboxylate]	158 to 159 °C
CCCn1c(CCOC)nc2c(N)nc3cc(OC4CCN(C(=O)OC(C)(C)C)CC4)ccc3c21 [Example 387, tert-Butyl 4-{[4-amino-2-(2-methoxyethyl)-1-propyl-1H-imidazo[4,5-c]quinolin-7-yl]oxy}piperidine-1-carboxylate]	173 to 175 °C
CCCn1c(CCOC)nc2c(N)nc3cc(OC4CCN(C(=O)NC(C)C)CC4)ccc3c21 [Example 388, 4-{[4-Amino-2-(2-methoxyethyl)-1-propyl-1H-imidazo[4,5-c]quinolin-7-yl]oxy}-N-isopropylpiperidine-1-carboxamide]	176 to 179 °C
CCCn1c(CCOC)nc2c(N)nc3cc(OC4CCN(C(=O)C(C)C)CC4)ccc3c21 [Example 389, 7-[(1-Isobutyrylpiperidin-4-yl)oxy]-2-(2-methoxyethyl)-1-propyl-1H-imidazo[4,5-c]quinolin-4-amine]	165 to 166 °C
CCCn1c(CCOC)nc2c(N)nc3cc(OC4CCN(S(C)(=O)=O)CC4)ccc3c21 [Example 390, 2-(2-Methoxyethyl)-7-{[1-(methylsulfonyl)piperidin-4-yl]oxy}-1-propyl-1H-imidazo[4,5-c]quinolin-4-amine]	224 to 225.5 °C
CCCn1c(CCOC)nc2c(N)nc3cc(OC4CCN(C(N)=O)CC4)ccc3c21 [Example 391, 4-{[4-Amino-2-(2-methoxyethyl)-1-propyl-1H-imidazo[4,5-c]quinolin-7-yl]oxy}piperidine-1-carboxamide]	207 to 208.5 °C
CCCn1c(CCOC)nc2c(N)nc3cc(OCCCS(C)(=O)=O)ccc3c21 [Example 392, 2-(2-Methoxyethyl)-7-[3-(methylsulfonyl)propoxy]-1-propyl-1H-imidazo[4,5-c]quinolin-4-amine]	170 to 171 °C
CCCn1c(CCOC)nc2c(N)nc3cc(OCCCNC(=O)OC(C)(C)C)ccc3c21 [Example 393, tert-Butyl 3-{[4-amino-2-(2-methoxyethyl)-1-propyl-1H-imidazo[4,5-c]quinolin-7-yl]oxy}propylcarbamate]	133.5 to 135 °C
CCCn1c(CCOC)nc2c(N)nc3cc(OCCCN)ccc3c21 [Example 394, 7-(3-Aminopropoxy)-2-(2-methoxyethyl)-1-propyl-1H-imidazo[4,5-c]quinolin-4-amine]	165 to 166.5 °C
CCCn1c(CCO)nc2c(N)nc3cc(OCCCNC(=O)C(C)C)ccc3c21 [Example 395, N-(3-{[4-Amino-2-(2-hydroxyethyl)-1-propyl-1H-imidazo[4,5-c]quinolin-7-yl]oxy}propyl)-2-methylpropanamide]	190.5 to 192 °C

Reference: patent US9856254B2, “Alkoxy substituted imidazoquinolines” (3M INNOVATIVE PROPERTIES COMPANY, priority 2003, dated 2018)
